pEC50, pKi: −log10 of the molar value. “And” between values parts separate entries of the source, which are not always exact repeats. Equal values may be shown once. Bridge positions count the residues as written; N and C are the ends. Ends that are not written are not given here. Peptide text beside a SMILES is read from it.
How the values were obtained:
[1] = mouse, in vivo, ip
kOR [2] = biological target: T1, kOR (Mus musculus, UniProt P33534); type: cell-based
kOR [3] = biological target: T1, kOR; test: biochemical; type: binding
kOR [4] = biological target: T1, kOR; test: cell-based
EAE mouse model = details: mice; oral administration; cited from earlier work
hKOR = hKOR (Homo sapiens, UniProt P41145); details: cited from earlier work
hKOR, sequence (P41145 whole entry): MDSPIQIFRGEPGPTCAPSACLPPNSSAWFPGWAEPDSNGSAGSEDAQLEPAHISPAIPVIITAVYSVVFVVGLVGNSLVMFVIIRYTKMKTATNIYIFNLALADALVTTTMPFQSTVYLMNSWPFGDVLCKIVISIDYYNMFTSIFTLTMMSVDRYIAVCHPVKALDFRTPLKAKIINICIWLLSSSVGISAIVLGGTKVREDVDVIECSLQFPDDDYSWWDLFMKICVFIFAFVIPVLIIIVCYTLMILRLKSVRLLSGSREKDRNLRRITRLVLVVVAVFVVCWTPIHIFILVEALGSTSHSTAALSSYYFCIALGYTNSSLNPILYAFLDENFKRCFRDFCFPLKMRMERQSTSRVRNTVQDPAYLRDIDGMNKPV

T-cell proliferation = details: in vitro; IL-2-dependent mechanism; cited from earlier work

T1 sequence (P33534 whole entry): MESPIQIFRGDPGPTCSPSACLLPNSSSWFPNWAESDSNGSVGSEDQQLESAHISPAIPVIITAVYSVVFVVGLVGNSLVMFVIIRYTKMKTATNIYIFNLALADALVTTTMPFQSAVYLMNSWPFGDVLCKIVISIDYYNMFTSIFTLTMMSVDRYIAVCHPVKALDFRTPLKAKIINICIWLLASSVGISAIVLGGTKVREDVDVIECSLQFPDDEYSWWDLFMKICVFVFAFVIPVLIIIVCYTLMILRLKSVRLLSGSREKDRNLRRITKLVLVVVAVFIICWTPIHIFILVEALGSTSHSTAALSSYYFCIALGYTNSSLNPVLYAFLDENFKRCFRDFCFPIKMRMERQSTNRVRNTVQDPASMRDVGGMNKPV

**Q.** With `Cc1cc(-c2ccc(/N=N/c3ccc4c(S(=O)(=O)[O-])cc(S(=O)(=O)[O-])c(N)c4c3O)c(C)c2)ccc1/N=N/c1ccc2c(S(=O)(=O)[O-])cc(S(=O)(=O)[O-])c(N)c2c1O.[Na+].[Na+].[Na+].[Na+]` [EvansBlue dye, reference compound] as the compound, how does the “Biodistribution: brain” value [1] read?
**A.** strong signal

**Q.** What about the “Biodistribution: spine” value [1] of the same compound?
**A.** strong signal

**Q.** Which “Effect on the efficacy of U50,488 to recruit beta arrestin” value (kOR [2]) does the source give for `CC(C)C[C@@H]1NC(=O)CNC(=O)[C@H](CC(N)=O)NC(=O)[C@H](CCCNC(=N)N)NC(=O)[C@H]([C@@H](C)O)NC(=O)[C@@H]2CSSC[C@@H]3NC(=O)[C@H]([C@@H](C)O)NC(=O)CNC(=O)CNC(=O)[C@H](C(C)C)NC(=O)[C@@H]4CSSC[C@H](NC(=O)[C@H](CCCCN)NC(=O)[C@H](CSSC[C@H](NC(=O)[C@H](C(C)C)NC(=O)[C@@H]5CCCN5C1=O)C(=O)NCC(=O)N[C@@H](CCC(=O)O)C(=O)N[C@@H]([C@@H](C)O)C(=O)N4)NC(=O)CNC(=O)[C@@H]1CCCN1C(=O)[C@H]([C@@H](C)O)NC(=O)[C@H](CC(N)=O)NC3=O)C(=O)N[C@@H](CO)C(=O)N[C@@H](Cc1c[nH]c3ccccc13)C(=O)N1CCC[C@H]1C(=O)N[C@@H](C(C)C)C(=O)N2` [[T20K]-kalata B1] (cyclo(CGETCVGGTCNTPGCKCSWPVCTRNGLPV); disulfide 1-15, 5-17, 10-22 (inferred); ring closure inferred) here?
**A.** remarkable alleviation of the efficacy

**Q.** What about the “Effect on the potency of U50,488 to recruit beta arrestin” value (kOR [2]) of the same compound?
**A.** not impinging on its potency

**Q.** What about the beta arrestin recruitment (kOR [2]) of the same compound?
**A.** no recruitment of beta arrestin could be detected

**Q.** And the “Effect on the affinity of dynorphin A 1-13” value (kOR [3])?
**A.** only slightly affects the affinity

**Q.** And the “Effect on tritiated diprenorphine binding” value (kOR [3])?
**A.** negatively modulates tritiated diprenorphine

**Q.** And the pKi (kOR [3])?
**A.** 5.57

**Q.** And the pEC50 (kOR [4])?
**A.** 4.77

**Q.** And the “Effect on the efficacy of U50,488 (cAMP)” value (kOR [4])?
**A.** only slightly affected the efficacy

**Q.** What about the “Effect on the efficacy of dynorphin A 1-13 (cAMP)” value (kOR [4]) of the same compound?
**A.** increase in its efficacy

**Q.** And the “Effect on the potency of dynorphin A 1-13 (cAMP)” value (kOR [4])?
**A.** does not affect the potency

**Q.** What about the “Mode of action at the kOR” value (kOR [4]) of the same compound?
**A.** full agonist

**Q.** And the “Shift in the potency of U50,488 (cAMP)” value (kOR [4])?
**A.** nine-fold leftward shift in the potency

**Q.** And the “Symptoms of EAE” value (EAE mouse model)?
**A.** significant delay and diminished symptoms of EAE

**Q.** And the “Binding to and activation of hKOR” value (hKOR)?
**A.** bind to and activate hKOR

**Q.** With `CC[C@H](C)[C@@H]1NC(=O)[C@H](C(C)C)NC(=O)[C@H]([C@@H](C)O)NC(=O)[C@H](CO)NC(=O)[C@H](Cc2ccccc2)NC(=O)[C@@H]2CSSC[C@@H]3NC(=O)[C@H](C(C)C)NC(=O)[C@H](CCCCN)NC(=O)[C@H](CC(N)=O)NC(=O)[C@H](CCCCN)NC(=O)[C@@H]4CSSC[C@H](NC(=O)[C@H](CO)NC(=O)[C@H](CCC(=O)O)NC(=O)CNC(=O)[C@H](CSSC[C@H](NC(=O)CNC1=O)C(=O)N[C@@H](CO)C(=O)N4)NC(=O)[C@@H]1CCCN1C(=O)[C@H]([C@@H](C)CC)NC(=O)[C@H](C(C)C)NC(=O)CNC(=O)[C@H](CC(N)=O)NC(=O)[C@H](CCCNC(=N)N)NC(=O)[C@H](Cc1ccc(O)cc1)NC3=O)C(=O)N[C@@H](C(C)C)C(=O)N[C@@H](Cc1ccccc1)C(=O)N[C@@H]([C@@H](C)CC)C(=O)N1CCC[C@H]1C(=O)N2` [caripe 10] (cyclo(CFSTVIGCSCKNKVCYRNGVIPCGESCVFIP); disulfide 1-15, 8-23, 10-27 (inferred); ring closure inferred) as the compound, how does the pKi (kOR [3]) read?
**A.** 6.00

**Q.** With “conjugated [T20K]-kalata B1: [T20K]-kalata B1 conjugated to VivoTag 680 XL Fluorochrome (GLPVCGETCVGGTCNTPGCKCSWPVCTRN; ends and bridges not checked; also: conjugated to VivoTag 680 XL fluorochrome (place not given here); UniProt P56254 89-117, looked up, variant T20K)” as the compound, how does the “Biodistribution: brain” value [1] read?
**A.** accumulated in the brain

**Q.** And the “Biodistribution: spine” value [1]?
**A.** also in the spine but to a far less extent

**Q.** With dynorphin A 1-13 [reference compound] as the compound, how does the “Receptor activation cAMP Emax (%)” value (kOR [4]) read?
**A.** 113% and 104% and 119% and 134% and 137% and 96%

**Q.** With “kalata B1: circular plant peptide (cyclotide), GLPVCGETCVGGTCNTPGCTCSWPVCTRN (cyclo(GLPVCGETCVGGTCNTPGCTCSWPVCTRN); ends not checked; also: three disulfide bonds (cystine knot), pairing not given here; listed as Oldenlandia affinis)” as the compound, how does the T-cell proliferation (T-cell proliferation) read?
**A.** silence T-cell proliferation

**Q.** Which “Binding of isolated vitri peptide to the kOR” value (kOR [3]) does the source give for “vitri cyclotide: novel cyclotide isolated from Viola tricolor, GDPIPCGETCFTGKCYSETIGCTCEWPICTKN (not fully specified (bridges); ends and bridges not checked; also: cyclic, type not given here)” here?
**A.** able to bind to the kOR

Source: US20240269230A1 (priority 2020, published 2024)
